Data as given in ChEMBL document CHEMBL5465560, “Selectivity Literature for EUbOPEN Chemogenomic Library” (2024).
Each block holds one compound with its values, some of them ahead of it.

What was measured:
[1] = target: Phosphatidylinositol 4-kinase type 2-alpha (Homo sapiens) (UniProt Q9BTU6); test: Selectivity interaction (Adapta Assay) EUB0001632a PI4K2A; conditions: at 10 µM
[2] = target: Cyclin-dependent kinase 5/CDK5 activator 1 (Homo sapiens) (UniProt Q00535+Q15078); test: Selectivity interaction (Kinase panel (Z-LYTE Assay)) EUB0001632a CDK5; type: protein-complex assay; conditions: at 10 µM
[3] = system: T1, Receptor-type tyrosine-protein kinase FLT3 (Homo sapiens), P36888 [D835H]; conditions: at 10 µM
T1 sequence (whole entry): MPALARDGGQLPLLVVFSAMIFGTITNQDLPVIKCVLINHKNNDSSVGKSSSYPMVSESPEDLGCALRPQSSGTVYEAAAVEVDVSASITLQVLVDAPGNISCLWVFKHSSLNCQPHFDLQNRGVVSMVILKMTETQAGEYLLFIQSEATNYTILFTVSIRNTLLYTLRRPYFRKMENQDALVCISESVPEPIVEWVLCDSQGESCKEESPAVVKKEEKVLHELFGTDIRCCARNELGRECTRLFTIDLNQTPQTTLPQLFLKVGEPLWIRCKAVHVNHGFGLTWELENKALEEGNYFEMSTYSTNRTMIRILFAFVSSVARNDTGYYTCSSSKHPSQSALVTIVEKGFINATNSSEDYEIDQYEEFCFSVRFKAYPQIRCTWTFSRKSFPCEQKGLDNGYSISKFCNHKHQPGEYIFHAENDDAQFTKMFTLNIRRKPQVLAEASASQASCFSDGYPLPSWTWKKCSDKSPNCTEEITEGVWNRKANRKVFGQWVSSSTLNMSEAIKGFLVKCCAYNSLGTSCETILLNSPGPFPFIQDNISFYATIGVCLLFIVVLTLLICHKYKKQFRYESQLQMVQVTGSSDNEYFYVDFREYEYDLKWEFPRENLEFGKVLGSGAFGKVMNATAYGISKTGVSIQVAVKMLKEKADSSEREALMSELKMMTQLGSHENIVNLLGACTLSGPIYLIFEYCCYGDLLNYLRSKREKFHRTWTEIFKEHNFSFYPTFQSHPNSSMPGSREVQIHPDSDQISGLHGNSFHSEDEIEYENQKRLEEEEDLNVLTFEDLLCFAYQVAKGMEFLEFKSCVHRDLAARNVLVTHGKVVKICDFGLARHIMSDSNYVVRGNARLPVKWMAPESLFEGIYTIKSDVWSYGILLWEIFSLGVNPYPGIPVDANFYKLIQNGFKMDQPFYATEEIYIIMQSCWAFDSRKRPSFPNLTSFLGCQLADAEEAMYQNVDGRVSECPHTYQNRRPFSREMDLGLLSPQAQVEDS

[4] = target: T2, Inhibitor of nuclear factor kappa-B kinase subunit epsilon (Homo sapiens) (UniProt Q14164); conditions: at 10 µM
T2 sequence (whole entry): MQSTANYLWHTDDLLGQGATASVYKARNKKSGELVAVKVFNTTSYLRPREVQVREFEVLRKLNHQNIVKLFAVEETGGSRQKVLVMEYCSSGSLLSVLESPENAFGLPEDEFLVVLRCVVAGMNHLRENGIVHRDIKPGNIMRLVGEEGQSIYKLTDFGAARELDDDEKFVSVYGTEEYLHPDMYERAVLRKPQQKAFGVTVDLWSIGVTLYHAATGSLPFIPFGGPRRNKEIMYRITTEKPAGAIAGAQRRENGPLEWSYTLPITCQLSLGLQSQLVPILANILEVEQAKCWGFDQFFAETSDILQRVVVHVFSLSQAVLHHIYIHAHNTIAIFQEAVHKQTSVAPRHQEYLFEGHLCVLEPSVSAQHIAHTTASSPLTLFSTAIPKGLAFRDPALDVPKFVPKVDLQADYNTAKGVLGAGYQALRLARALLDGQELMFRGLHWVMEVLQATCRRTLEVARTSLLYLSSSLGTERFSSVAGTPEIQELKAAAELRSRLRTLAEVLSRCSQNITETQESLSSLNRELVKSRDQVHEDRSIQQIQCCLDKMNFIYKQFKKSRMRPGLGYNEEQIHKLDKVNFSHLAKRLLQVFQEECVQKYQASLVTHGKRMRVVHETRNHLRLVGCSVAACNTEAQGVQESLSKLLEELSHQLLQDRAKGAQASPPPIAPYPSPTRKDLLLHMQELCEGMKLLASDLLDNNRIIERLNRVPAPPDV

[5] = target: Phosphatidylinositol 4-kinase beta (Homo sapiens, UniProt Q9UBF8); test: Selectivity interaction (ActivX KiNativ screen (kinase selectivity in THP-1 cell lysates)) EUB0000639a PI4KB; type: subcellular; conditions: lysate, at 0.2 µM
[6] = target: T3, Serine/threonine-protein kinase Sgk3 (Homo sapiens) (UniProt Q96BR1); test: Selectivity interaction (ActivX KiNativ screen (kinase selectivity in THP-1 cell lysates)) EUB0000639a SGK3; type: subcellular; conditions: lysate, at 0.2 µM
T3 sequence (whole entry): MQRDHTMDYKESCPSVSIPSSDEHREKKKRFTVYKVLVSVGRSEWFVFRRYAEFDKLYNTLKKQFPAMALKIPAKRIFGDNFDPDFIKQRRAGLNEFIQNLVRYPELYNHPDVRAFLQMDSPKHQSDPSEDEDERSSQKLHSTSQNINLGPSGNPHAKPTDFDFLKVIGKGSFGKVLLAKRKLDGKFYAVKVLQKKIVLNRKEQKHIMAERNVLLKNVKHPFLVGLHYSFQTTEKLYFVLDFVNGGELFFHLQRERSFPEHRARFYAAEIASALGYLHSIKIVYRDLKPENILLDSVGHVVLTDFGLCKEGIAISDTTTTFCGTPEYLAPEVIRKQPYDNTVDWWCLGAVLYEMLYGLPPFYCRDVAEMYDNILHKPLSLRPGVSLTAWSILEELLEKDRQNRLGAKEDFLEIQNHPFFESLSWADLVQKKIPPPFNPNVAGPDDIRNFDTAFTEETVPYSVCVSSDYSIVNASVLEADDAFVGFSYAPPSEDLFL

[7] = target: Serine/threonine-protein kinase pim-1 (Homo sapiens, UniProt P11309); test: Selectivity interaction (Kinase panel (Invitrogen)) EUB0000639a PIM1; conditions: at 200 nM
[8] = target: CDK3/cyclin E (Homo sapiens) (UniProt P24864+O96020+Q00526); test: Selectivity interaction (Millipore kinase profiler) EUB0000124b CDK3; type: protein-complex assay; conditions: at 10 µM
[9] = target: cAMP-dependent protein kinase catalytic subunit alpha (Homo sapiens, UniProt P17612); test: Selectivity interaction (Ambit KINOMEscan and KiNATiv profiling in Jurkat cells) EUB0000090b PRKACA; type: cell-based; conditions: at 1 µM
[10] = target: T3, Serine/threonine-protein kinase Sgk3 (Homo sapiens); test: Selectivity interaction (KinomeScan (DiscoverX)) EUB0001079a SGK3; conditions: at 1 µM
[11] = target: DNA (cytosine-5)-methyltransferase 3A (Homo sapiens) (UniProt Q9Y6K1); conditions: at 10 µM
DNA (cytosine-5)-methyltransferase 3A (Homo sapiens), sequence (Q9Y6K1 whole entry, looked up): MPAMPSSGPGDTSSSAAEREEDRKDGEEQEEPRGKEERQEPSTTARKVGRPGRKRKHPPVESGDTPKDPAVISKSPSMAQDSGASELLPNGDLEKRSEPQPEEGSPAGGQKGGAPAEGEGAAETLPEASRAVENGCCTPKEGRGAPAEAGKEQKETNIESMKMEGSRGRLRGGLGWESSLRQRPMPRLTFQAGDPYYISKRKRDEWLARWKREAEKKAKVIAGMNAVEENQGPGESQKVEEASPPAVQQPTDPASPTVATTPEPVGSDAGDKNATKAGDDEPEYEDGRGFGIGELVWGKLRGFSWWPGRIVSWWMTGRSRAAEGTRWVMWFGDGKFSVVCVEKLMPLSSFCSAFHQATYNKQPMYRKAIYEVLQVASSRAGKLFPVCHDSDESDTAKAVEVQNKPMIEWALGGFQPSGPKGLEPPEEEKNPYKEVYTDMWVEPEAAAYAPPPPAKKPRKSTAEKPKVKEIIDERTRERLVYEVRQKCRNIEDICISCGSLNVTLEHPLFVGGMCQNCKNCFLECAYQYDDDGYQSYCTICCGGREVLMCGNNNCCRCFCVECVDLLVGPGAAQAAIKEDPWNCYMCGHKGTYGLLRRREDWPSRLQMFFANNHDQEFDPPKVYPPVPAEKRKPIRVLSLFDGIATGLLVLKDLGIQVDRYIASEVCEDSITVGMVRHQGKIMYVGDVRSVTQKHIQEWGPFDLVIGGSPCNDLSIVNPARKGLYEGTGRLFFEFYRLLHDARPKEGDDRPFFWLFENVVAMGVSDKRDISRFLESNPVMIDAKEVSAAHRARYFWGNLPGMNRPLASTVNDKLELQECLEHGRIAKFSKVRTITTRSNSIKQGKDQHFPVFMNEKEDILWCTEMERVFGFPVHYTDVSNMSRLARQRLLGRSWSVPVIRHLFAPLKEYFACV

Serine/threonine-protein kinase pim-1, sequence (P11309 whole entry, looked up): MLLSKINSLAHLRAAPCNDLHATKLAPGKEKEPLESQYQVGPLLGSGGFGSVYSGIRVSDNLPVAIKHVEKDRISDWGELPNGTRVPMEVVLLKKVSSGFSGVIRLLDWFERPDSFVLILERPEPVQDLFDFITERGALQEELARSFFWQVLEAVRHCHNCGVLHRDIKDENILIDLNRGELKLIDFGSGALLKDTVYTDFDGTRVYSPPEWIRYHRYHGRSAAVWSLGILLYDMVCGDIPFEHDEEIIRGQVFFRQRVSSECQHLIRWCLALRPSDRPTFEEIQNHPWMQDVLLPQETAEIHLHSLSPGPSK
Phosphatidylinositol 4-kinase type 2-alpha (Homo sapiens), sequence (Q9BTU6 whole entry): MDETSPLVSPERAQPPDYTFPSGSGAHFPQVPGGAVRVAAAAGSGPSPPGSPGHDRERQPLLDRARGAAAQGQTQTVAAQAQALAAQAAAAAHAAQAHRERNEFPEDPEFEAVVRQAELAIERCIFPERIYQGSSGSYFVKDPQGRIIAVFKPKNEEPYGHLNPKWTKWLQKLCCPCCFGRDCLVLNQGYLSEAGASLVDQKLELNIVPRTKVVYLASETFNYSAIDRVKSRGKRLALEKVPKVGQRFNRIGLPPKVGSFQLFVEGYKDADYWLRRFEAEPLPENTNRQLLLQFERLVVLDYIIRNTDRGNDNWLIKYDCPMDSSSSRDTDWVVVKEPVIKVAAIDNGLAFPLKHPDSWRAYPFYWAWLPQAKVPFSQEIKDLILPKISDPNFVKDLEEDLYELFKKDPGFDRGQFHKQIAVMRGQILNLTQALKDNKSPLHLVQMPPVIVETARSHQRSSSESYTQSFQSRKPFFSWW
Phosphatidylinositol 4-kinase beta, sequence (Q9UBF8 2-816 limits assumed): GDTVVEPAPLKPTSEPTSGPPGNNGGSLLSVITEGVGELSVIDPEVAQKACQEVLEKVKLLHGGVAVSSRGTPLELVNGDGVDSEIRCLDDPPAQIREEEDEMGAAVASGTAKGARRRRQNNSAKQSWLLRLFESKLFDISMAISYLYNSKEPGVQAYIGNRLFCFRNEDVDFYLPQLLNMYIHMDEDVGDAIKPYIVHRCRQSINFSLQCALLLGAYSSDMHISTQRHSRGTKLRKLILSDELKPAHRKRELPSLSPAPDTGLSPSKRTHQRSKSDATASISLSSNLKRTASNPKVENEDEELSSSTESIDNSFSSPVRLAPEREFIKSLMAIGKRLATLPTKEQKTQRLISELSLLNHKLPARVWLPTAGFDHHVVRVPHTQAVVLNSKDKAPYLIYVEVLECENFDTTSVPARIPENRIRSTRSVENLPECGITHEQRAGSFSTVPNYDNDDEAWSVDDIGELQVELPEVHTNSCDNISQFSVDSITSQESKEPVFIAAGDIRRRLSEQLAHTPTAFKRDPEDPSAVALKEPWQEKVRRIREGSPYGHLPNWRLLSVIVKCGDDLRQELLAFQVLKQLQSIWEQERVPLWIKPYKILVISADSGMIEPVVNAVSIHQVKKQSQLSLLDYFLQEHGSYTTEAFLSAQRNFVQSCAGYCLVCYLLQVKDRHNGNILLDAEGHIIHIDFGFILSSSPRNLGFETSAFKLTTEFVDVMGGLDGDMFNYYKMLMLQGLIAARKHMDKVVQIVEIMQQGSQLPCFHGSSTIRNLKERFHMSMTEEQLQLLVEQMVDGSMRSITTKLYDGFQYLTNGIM
Cyclin-dependent kinase 5/CDK5 activator 1 (Homo sapiens), sequence (Q00535 whole entry): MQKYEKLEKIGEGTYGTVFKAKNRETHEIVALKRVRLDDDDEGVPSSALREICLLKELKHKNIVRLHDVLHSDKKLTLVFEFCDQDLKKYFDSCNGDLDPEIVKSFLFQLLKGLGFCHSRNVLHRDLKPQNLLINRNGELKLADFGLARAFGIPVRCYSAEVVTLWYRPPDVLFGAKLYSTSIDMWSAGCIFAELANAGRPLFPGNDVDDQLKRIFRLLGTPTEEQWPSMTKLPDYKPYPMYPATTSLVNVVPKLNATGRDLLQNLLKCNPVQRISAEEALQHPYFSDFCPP
Cyclin-dependent kinase 5/CDK5 activator 1 (Homo sapiens), sequence (Q15078 99-307 partner limits assumed): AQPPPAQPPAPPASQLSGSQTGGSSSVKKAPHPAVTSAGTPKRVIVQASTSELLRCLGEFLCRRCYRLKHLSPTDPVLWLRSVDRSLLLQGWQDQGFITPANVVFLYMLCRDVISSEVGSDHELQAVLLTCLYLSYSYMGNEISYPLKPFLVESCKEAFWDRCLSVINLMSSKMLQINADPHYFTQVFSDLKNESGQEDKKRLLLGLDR
CDK3/cyclin E (Homo sapiens), sequence (O96020 whole entry, looked up): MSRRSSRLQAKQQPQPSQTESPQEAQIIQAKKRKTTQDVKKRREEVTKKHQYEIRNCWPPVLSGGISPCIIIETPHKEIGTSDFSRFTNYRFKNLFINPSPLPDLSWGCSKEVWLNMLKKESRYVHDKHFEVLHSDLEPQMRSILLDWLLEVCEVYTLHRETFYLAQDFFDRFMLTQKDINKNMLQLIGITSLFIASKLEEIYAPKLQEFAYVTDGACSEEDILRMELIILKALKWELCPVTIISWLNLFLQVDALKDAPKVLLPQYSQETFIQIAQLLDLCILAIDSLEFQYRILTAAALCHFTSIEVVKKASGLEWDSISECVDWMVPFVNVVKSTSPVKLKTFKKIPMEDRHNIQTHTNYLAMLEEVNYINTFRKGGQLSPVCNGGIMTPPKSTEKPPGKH
CDK3/cyclin E (Homo sapiens), sequence (P24864 whole entry, looked up): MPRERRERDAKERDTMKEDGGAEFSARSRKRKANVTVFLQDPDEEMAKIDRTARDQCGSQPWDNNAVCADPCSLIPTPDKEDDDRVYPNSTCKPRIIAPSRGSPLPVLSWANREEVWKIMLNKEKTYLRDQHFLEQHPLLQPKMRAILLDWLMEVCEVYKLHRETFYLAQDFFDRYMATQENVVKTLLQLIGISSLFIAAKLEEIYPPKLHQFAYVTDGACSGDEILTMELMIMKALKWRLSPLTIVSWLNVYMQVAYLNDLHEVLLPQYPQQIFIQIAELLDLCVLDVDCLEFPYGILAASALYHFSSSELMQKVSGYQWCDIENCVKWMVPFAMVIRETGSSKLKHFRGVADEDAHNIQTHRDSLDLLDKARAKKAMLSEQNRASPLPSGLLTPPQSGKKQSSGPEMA
CDK3/cyclin E (Homo sapiens), sequence (Q00526 whole entry, looked up): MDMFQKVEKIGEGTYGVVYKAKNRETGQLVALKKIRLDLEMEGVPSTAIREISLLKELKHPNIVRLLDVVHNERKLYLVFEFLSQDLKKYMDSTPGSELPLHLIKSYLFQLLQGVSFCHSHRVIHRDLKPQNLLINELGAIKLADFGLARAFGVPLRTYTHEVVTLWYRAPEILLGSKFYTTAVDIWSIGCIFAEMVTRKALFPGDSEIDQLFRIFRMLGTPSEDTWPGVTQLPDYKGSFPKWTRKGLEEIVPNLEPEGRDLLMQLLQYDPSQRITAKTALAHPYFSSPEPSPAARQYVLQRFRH

% of inhibition [1]: 1.38%
% of control [2]: 5.78%
SMILES: Cn1cc(-n2cnc3c(NCc4nc5cc(Cl)c(Cl)cc5[nH]4)nc(N4CCOCC4)nc32)cn1

% of control [3]: 100%
% of control [4]: 100%
SMILES: CCN(CC)CCCCNc1ncc2cc(-c3cc(OC)cc(OC)c3)c(NC(=O)NC(C)(C)C)nc2n1

% of inhibition [5]: -16.4%
% of inhibition [6]: -5.7%
% of inhibition [7]: 12.3%
SMILES: CC[C@@H]1[C@H](F)C(=O)N[C@@H]1COc1nccc2cc(C(N)=O)c(OC)cc12 [ZIMLOVISERTIB]

% of control [8]: 101%
SMILES: CC(=O)Nc1cccc(-n2c(=O)n(C3CC3)c(=O)c3c(Nc4ccc(I)cc4F)n(C)c(=O)c(C)c32)c1

SMILES: CN(C)C/C=C/C(=O)Nc1ccc(C(=O)N2CCCC(Nc3ncc(Cl)c(-c4c[nH]c5ccccc45)n3)C2)cc1 (stereo unspecified)
% of control [9]: 100%

SMILES: Nc1cnc(N2CCc3cc(S(=O)(=O)Nc4c(F)cc(Cl)cc4F)cc(N4CCCC4=O)c32)nc1 [TP-020n]
% of control [10]: 100%

% activity [11]: > 90%
SMILES: CNCCN1CCC(c2cc(CN(C)C(=O)c3cccc(Oc4ccccc4)c3)ccn2)CC1
